Assay results published in US12285437B2 (The Research Foundation for The State University of new York, priority 2019, dated 2025).
Read-outs that look alike come from different tables or passages of the source.

Columns and labels:
[1] = system: MDA-MB-231 human breast cancer cells; conditions: 3 μM
Description: (§1) pH-dependent anti-proliferation assays with cells. In 96-well plates, ˜3,000 cells were seeded per well then grown for 24-48 hr until 30-40% confluency. […] For serum effect cell plate data shown in FIG. 5I, cell viability was measured using alamar Blue assay (i.e., growth media was replaced with 45 μL of pH 7.4 DMEM/F-12 media without phenol red, 5 μL of alamar Blue reagent (10×) was added; fluorescence at 590 nm was recorded after excitation at 560 nm at 1 hr afterwards).
(§2) The reaction solution was allowed to stand at rt for 1 hr in the dark, during which the pH decreased to ˜9.6. After 1 hr, the reaction solution was split into two 50-μL portions (for pH 7.4 vs. pH 6.2-6.8 cell experiments). The pH of one portion was adjusted to pH 8 (for pH 7.4 cell experiments) or pH 7 (for pH 6.2-6.8 cell experiments). Subsequently, the solution was diluted 30-fold (to 10 μM) with pH 7.4 or pH 6.2-6.8 cell media (final volume 1.5 mL) and then filtered (0.2 micron) before used in cell experiments.

[2] = cancer patients, two hours afterwards; cited from earlier work
[3] = system: NIH:OVCAR3 human ovarian cancer cells
Description: as §1, §2

[4] = system: noncancerous kidney epithelial HK2 cells; assay: Cytotoxicity assays with noncancerous HK2 kidney cells; format: cell-based, human
Description: Cytotoxicity assays with noncancerous HK2 kidney cells. […] Dox and DMA prodrug experiments were carried out on separate plates. […] The cell viability in vehicle (buffer/DMSO) negative control treatment groups were treated as 100% during normalization of data.

[5] = system: SKOV3 human ovarian cancer cells; conditions: FIG. 9A, 4 μM
Description: as §1, §2

[6] = system: PC-3 human prostate cancer cells; conditions: FIG. 9B, PC3, […], 4 μM
Description: as §1, §2

[7] = system: ES-2 human ovarian cancer cells; assay: pH-dependent anti-proliferation assay (MTS; alamar Blue for FIG. 7I); conditions: for Cell Viability Average (Avg): FIG. 7A, ES-2, 6 hr
Source text: pH-dependent anti-proliferation assays with cells.
NaOH to adjust the pH to 9.9.

ES2 cells = assay: Imaging studies (confocal microscopy); format: cell-based, human; conditions: ES2, 1 h
Description: Afterwards, the treatment solution was removed; the nuclei of the cells were labeled with staining dye Hoechst 33342; and then images were taken on a scanning confocal microscope.
Imaging studies (confocal microscopy). Approximately 8,000 ES2 cells were seeded on a colIagen-coated glass dish (MatTek Corporation, part No. P35GCOL-0-10-C) and cultured in McCoy's 5A medium with 10% fetal bovine serum and 1% penicillin-streptomycin at 37° C. in the incubator (5% CO2) overnight. […] After treatment solution was removed, the cells were washed 1× with 100 μL of DMEM/F12 pH-specific media. Prior to fluorescence imaging, the nuclei of cells were stained with 1 μg/mL Hoechst 33342 in PBS for 20 min at 37° C. in the incubator. Afterwards, cells stayed in pH-specific DMEM/F12 media during imaging. […] The images in FIGS. 33-36 were processed using LAS X and ImageJ.

ES2 ovarian cancer cells = assay: Antiproliferation assays against ES2 cancer cells at different pH values; format: cell-based, human; conditions: ES2, 2 h, 1 μM
Description: For cell experiments, a pH 8 or pH 10 (directly from DMI to DMA conversion) solution of DMA 2/4/6 was sterilized by filtering through a 0.2-micron membrane. […] At this point, small amounts of 10 (or 25) mM of sterile aq.
Antiproliferation assays against ES2 cancer cells at different pH values. […] Treatment solution volume was 50-100 μL per well, with a set volume per well for all wells in a plate.

COc1cccc2c1C(=O)c1c(O)c3c(c(O)c1C2=O)C[C@@](O)(C(=O)CO)C[C@@H]3O[C@H]1C[C@H](N)[C@H](O)[C@H](C)O1 [Dox, doxorubicin]
Cell Viability Avg ([1]; FIG. 7B, MDA-MB231, 2 hr, pH 6.3-6.4): 30%
Cell Viability Avg ([1]; FIG. 7B, MDA-MB231, 2 hr, pH 7.6-7.7): 15%
Cell Viability Avg ([1]; FIG. 7F, MDA-MB231, […], pH 6.3-6.4): 30%
Cell Viability Avg ([1]; FIG. 7F, MDA-MB231, […], pH 6.5): 29%
Cell Viability Avg ([1]; FIG. 7F, MDA-MB231, […], pH 6.6-6.7): 36%
Cell Viability Avg ([1]; FIG. 7F, MDA-MB231, […], pH 6.9-7.0): 30%
Cell Viability Avg ([1]; FIG. 7F, MDA-MB231, […], pH 7.2-7.3): 29%
Cell Viability Avg ([1]; FIG. 7F, MDA-MB231, […], pH 7.5-7.7): 31%
intratumoral concentration [2]: 0.5 to 5 mM
Cell Viability Avg ([3]; FIG. 7C, OVCAR3, 2 hr, 3 μM, pH 6.3-6.4): 57%
Cell Viability Avg ([3]; FIG. 7C, OVCAR3, 2 hr, 3 μM, pH 7.4-7.6): 24%
Cell Viability Avg ([3]; FIG. 7G, OVCAR3, 2 hr, 2 μM, pH 6.2-6.4): 60%
Cell Viability Avg ([3]; FIG. 7G, OVCAR3, 2 hr, 2 μM, pH 6.4-6.5): 55%
Cell Viability Avg ([3]; FIG. 7G, OVCAR3, 2 hr, 2 μM, pH 6.6-6.7): 58%
Cell Viability Avg ([3]; FIG. 7G, OVCAR3, 2 hr, 2 μM, pH 6.8-6.9): 46%
Cell Viability Avg ([3]; FIG. 7G, OVCAR3, 2 hr, 2 μM, pH 7.1-7.3): 51%
Cell Viability Avg ([3]; FIG. 7G, OVCAR3, 2 hr, 2 μM, pH 7.2-7.5): 48%
Cell Viability Avg ([3]; FIG. 10A, OVCAR3, 6 hr, 1 μM, pH 6.5-6.7): 81%
Cell Viability Avg ([3]; FIG. 10A, OVCAR3, 6 hr, 1 μM, pH 7.3-7.6): 51%
viability ([4]; FIG. 29B, HK2, pH 7.4, 30 μM): 21%
cells killed ([4]; FIG. 30B, HK2, pH 7.4, 1 μM): 20%
viable cells ([4]; FIG. 30B, HK2, pH 7.4, 30 μM): 31%
cells killed ([4]; FIG. 31B, HK2, pH 7.4, 30 μM): > 80%
Cell Viability Avg ([5]; pH 6.3-6.5): 39%
Cell Viability Avg ([5]; pH 7.5-7.6): 22%
Cell Viability Avg ([6]; pH 6.3-6.4): 53%
Cell Viability Avg ([6]; pH 7.5-7.6): 15%
Cell Viability Average (Avg) ([7]; 0.5 μM, pH 6.6-6.8): 32%
Cell Viability Average (Avg) ([7]; 0.5 μM, pH 7.2-7.5): 16%
Cell Viability Avg ([7]; FIG. 7E, ES2, […], 1 μM, pH 6.3-6.4): 43%
Cell Viability Avg ([7]; FIG. 7E, ES2, […], 1 μM, pH 6.5): 49%
Cell Viability Avg ([7]; FIG. 7E, ES2, […], 1 μM, pH 6.7-6.8): 44%
Cell Viability Avg ([7]; FIG. 7E, ES2, […], 1 μM, pH 6.8-6.9): 42%
Cell Viability Avg ([7]; FIG. 7E, ES2, […], 1 μM, pH 7.2): 25%
Cell Viability Avg ([7]; FIG. 7E, ES2, […], 1 μM, pH 7.2-7.4): 23%
Cell Viability Avg ([7]; FIG. 7I, ES2, FBS(50%), 1 μM, pH 6.5-6.9): 71%
Cell Viability Avg ([7]; FIG. 7I, ES2, FBS(50%), 1 μM, pH 7.2-7.7): 36%
Cell Viability Avg ([7]; FIG. 7I, ES2, no FBS, 1 μM, pH 6.5-6.9): 77%
Cell Viability Avg ([7]; FIG. 7I, ES2, no FBS, 1 μM, pH 7.2-7.7): 48%
Cell Viability Avg ([7]; FIG. 8A, ES2, 0.1 μM, pH 6.6-6.7): 87%
Cell Viability Avg ([7]; FIG. 8A, ES2, 0.1 μM, pH 7.5-7.6): 62%
Cell Viability Avg ([7]; FIG. 8A, ES2, 0.3 μM, pH 6.6-6.7): 72%
Cell Viability Avg ([7]; FIG. 8A, ES2, 0.3 μM, pH 7.5-7.6): 33%
Cell Viability Avg ([7]; FIG. 8A, ES2, 1 μM, pH 6.6-6.7): 35%
Cell Viability Avg ([7]; FIG. 8A, ES2, 1 μM, pH 7.5-7.6): 15%
Cell Viability Avg ([7]; FIG. 8A, ES2, 3 μM, pH 6.6-6.7): 21%
Cell Viability Avg ([7]; FIG. 8A, ES2, 3 μM, pH 7.5-7.6): 2%
Cell Viability Avg ([7]; FIG. 8B, ES2, 2 hr, 1 μM, pH 6.6-6.8): 44%
Cell Viability Avg ([7]; FIG. 8B, ES2, 2 hr, 1 μM, pH 7.2-7.6): 23%
Cell Viability Avg ([7]; FIG. 8B, ES2, 6 hr, 0.5 μM, pH 6.6-6.8): 32%
Cell Viability Avg ([7]; FIG. 8B, ES2, 6 hr, 0.5 μM, pH 7.2-7.6): 16%
Cell Viability Avg ([7]; FIG. 8B, ES2, 12 hr, 0.5 μM, pH 6.6-6.8): 47%
Cell Viability Avg ([7]; FIG. 8B, ES2, 12 hr, 0.5 μM, pH 7.2-7.6): 13%
Cell Viability Avg ([7]; FIG. 8B, ES2, 24 hr, 1 μM, pH 6.6-6.8): 35%
Cell Viability Avg ([7]; FIG. 8B, ES2, 24 hr, 1 μM, pH 7.2-7.6): 15%
Cell Viability Avg ([7]; FIG. 10B, ES2, 12 hr, 0.5 μM, pH 6.6-6.7): 47%
Cell Viability Avg ([7]; FIG. 10B, ES2, 12 hr, 0.5 μM, pH 7.4-7.6): 13%
distribution of Dox fluorescence within cells (ES2 cells): within the nuclei
Dox fluorescence signals in cells, pH 6.7 vs. 7.7 (ES2 cells; 4 μM Dox or 8 μM prodrug/DMI): More Dox fluorescence signals were observed at pH 7.7 than 6.7
viability (ES2 ovarian cancer cells; pH 6.6-6.8): 60-70%
viability (ES2 ovarian cancer cells; FIG. 29A, pH 6.7): 60-70%
viability (ES2 ovarian cancer cells; FIG. 29A, pH 7.5): 28%
viability (ES2 ovarian cancer cells; FIG. 31A, pH 6.5-6.8): 40-60%
viability (ES2 ovarian cancer cells; FIG. 31A, pH 7.5): ~20%
